Experiments:
[1] = target: Metabotropic glutamate receptor 4 (Rattus norvegicus, UniProt P31423); test: Positive allosteric modulator activity at rat mGlu4 receptor expressed in HEK293 cells assessed as effect on L-AP4-induced inositol phosphate accumulation incubated for 30 mins by florescence assay; format: functional, cell-based
[2] = target: Metabotropic glutamate receptor 5 (Rattus norvegicus, UniProt P31424); test: Negative allosteric modulator activity at rat mGlu5 receptor expressed in HEK293 cells assessed as effect on quisqualate-induced inositol phosphate accumulation incubated for 30 mins by florescence assay; format: functional, cell-based
[3] = target: Metabotropic glutamate receptor 4 (Rattus norvegicus) (UniProt P31423); conditions: HEK293
Description: Agonist activity at rat mGlu4 receptor expressed in HEK293 cells by inositol phosphate accumulation assay

[4] = target: Metabotropic glutamate receptor 5 (Rattus norvegicus) (UniProt P31424); test: Potency index, ratio of IC50 for MPEP to IC50 for test compound for negative allosteric modulator activity at rat mGlu5 receptor expressed in HEK293 cells; format: cell-based
[5] = target: Metabotropic glutamate receptor 5 (Rattus norvegicus) (UniProt P31424); conditions: HEK293
Description: Agonist activity at rat mGlu5 receptor expressed in HEK293 cells by inositol phosphate accumulation assay

Chain of Metabotropic glutamate receptor 5 (P31424 whole entry): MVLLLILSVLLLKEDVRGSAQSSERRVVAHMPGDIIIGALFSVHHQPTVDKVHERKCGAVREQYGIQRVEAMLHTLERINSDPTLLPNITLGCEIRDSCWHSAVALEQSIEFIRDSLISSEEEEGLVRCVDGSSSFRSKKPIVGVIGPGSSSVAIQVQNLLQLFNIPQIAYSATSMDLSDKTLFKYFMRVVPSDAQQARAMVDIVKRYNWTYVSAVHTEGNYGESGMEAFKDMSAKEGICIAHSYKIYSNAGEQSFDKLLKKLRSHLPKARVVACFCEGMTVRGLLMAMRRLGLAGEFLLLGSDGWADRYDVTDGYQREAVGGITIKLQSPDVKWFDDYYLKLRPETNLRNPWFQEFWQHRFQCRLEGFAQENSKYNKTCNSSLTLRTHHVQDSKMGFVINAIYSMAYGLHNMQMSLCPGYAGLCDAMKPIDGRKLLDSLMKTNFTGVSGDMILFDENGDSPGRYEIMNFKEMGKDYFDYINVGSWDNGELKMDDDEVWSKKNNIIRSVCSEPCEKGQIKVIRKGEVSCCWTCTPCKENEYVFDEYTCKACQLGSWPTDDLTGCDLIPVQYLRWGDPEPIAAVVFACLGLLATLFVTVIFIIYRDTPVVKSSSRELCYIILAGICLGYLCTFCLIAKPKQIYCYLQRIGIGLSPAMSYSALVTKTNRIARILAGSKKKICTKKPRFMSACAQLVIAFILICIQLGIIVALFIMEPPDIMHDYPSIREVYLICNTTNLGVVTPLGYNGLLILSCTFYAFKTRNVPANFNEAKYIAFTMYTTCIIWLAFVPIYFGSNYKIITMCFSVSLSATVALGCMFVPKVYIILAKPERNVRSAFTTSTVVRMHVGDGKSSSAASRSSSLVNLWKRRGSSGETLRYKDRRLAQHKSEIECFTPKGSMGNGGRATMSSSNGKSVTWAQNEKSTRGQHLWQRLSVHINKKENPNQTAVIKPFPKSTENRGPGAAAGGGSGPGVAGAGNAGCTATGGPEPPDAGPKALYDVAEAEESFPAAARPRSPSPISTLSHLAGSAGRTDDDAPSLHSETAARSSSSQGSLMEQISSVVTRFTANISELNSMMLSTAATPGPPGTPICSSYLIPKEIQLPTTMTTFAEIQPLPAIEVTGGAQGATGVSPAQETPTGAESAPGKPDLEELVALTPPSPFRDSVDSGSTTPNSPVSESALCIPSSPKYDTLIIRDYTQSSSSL
Chain of Metabotropic glutamate receptor 4 (P31423 whole entry): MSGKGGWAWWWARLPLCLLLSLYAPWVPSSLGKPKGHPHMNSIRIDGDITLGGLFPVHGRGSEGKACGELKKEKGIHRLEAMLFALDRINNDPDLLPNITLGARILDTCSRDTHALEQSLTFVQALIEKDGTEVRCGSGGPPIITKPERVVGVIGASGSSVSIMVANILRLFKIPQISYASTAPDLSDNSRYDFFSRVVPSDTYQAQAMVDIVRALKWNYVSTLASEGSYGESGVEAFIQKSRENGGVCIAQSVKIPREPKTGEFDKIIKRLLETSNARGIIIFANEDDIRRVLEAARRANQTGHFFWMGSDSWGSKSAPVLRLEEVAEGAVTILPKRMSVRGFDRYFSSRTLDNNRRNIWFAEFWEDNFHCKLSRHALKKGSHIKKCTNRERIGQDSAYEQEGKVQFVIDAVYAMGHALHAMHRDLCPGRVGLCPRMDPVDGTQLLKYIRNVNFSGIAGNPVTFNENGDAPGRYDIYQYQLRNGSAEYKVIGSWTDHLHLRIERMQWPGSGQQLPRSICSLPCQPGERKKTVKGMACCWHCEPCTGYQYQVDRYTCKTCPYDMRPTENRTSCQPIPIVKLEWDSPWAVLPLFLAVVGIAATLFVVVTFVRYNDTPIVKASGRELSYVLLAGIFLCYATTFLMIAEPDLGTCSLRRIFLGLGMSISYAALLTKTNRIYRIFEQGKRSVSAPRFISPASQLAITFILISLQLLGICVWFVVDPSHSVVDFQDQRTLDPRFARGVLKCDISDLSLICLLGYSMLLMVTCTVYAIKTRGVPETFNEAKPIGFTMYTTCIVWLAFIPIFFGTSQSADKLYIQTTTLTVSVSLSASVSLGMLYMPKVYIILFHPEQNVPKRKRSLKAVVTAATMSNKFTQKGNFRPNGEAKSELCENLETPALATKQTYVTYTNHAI
Chain of Metabotropic glutamate receptor 5 (Rattus norvegicus) (P31424 21-1203 limits assumed): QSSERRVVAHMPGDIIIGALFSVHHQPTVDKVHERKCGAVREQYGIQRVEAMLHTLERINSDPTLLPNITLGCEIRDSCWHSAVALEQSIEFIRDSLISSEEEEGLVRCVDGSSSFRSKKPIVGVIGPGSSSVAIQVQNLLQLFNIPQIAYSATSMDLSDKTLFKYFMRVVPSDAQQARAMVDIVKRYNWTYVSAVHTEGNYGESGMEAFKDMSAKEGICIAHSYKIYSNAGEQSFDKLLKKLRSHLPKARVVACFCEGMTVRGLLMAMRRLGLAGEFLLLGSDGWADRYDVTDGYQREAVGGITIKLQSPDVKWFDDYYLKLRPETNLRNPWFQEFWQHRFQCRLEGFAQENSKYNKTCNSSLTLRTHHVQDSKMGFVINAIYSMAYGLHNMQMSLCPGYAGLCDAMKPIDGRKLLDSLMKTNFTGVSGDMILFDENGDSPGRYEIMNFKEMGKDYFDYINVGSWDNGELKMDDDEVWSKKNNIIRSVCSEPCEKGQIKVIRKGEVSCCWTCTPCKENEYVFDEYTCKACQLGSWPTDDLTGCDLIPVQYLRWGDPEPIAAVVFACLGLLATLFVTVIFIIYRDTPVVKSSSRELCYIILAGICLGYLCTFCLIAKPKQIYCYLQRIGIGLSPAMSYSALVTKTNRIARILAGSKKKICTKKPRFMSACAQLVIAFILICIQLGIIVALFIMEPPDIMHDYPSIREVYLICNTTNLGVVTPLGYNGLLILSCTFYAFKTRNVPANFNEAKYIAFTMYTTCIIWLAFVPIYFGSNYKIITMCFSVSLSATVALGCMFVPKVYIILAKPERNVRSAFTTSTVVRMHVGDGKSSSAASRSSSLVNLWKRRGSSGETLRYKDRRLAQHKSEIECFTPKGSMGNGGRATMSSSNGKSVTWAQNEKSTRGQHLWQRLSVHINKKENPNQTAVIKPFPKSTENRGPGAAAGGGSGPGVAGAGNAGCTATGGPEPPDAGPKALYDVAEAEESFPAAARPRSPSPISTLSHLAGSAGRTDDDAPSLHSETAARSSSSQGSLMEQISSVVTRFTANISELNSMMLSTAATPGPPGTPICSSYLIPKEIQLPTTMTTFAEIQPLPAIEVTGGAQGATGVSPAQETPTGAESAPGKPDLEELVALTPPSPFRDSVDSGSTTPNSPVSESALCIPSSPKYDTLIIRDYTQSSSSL
Chain of Metabotropic glutamate receptor 4 (Rattus norvegicus) (P31423 whole entry): as the sequence (P31423 whole entry) above

COc1cc(NC(=O)c2ccccn2)ccc1NC(=O)c1ccccc1Cl
EC50 [1]: 104 nM
IC50 ([2]; read-out: IC50): > 30000 nM

N[C@@H](CCP(=O)(O)O)C(=O)O
EC10 [3]: 10 nM

COc1cc(C#Cc2ccccn2)ccc1NC(=O)c1ccccc1Cl
Ratio IC50 [4]: 4
EC50 [1]: > 30000 nM
IC50 ([2]; read-out: IC50): 24 nM

COc1cc(NC(=O)c2ccccn2)ccc1C#Cc1ccccc1Cl
EC50 [1]: 4100 nM
IC50 ([2]; hek293): Not Active

N[C@@H](Cn1oc(=O)[nH]c1=O)C(=O)O
EC80 [5]: 100 nM
